Each structure is given as a SMILES string.

The values that follow come from ChEMBL document CHEMBL1909046, “DrugMatrix in vitro pharmacology data”.

Data set [1] deals with Sigma non-opioid intracellular receptor 1 (Homo sapiens, UniProt Q99720). The data set can be described thus: DRUGMATRIX: Sigma1 radioligand binding (ligand: [3H] Haloperidol). The class given is cell membranes, Jurkat, Membrane. The settings on record: Not Active = under 50% inhibition at 10 µM.
A short description of data set [2]: DRUGMATRIX: Glutamate, Kainate radioligand binding (ligand: [3H] Kainic acid). Format: cell membranes, Rattus norvegicus, Wistar, Brain, Membrane. The settings on record: Not Active = under 50% inhibition at 10 µM.
The nature of data set [3]: DRUGMATRIX: Glutamate, NMDA, Phencyclidine radioligand binding (ligand: [3H] TCP). Format: cell membranes, Rattus norvegicus, Wistar, Cerebral cortex, Membrane. The settings on record: Not Active = under 50% inhibition at 10 µM.
The target of the next data set is Insulin receptor (Rattus norvegicus, UniProt P15127). Format: cell membranes, Wistar, Liver, Membrane. Further: in other assays of this panel Not Active means under 50% inhibition at 10 µM.
Chain of Insulin receptor (P15127 27-759 limits assumed): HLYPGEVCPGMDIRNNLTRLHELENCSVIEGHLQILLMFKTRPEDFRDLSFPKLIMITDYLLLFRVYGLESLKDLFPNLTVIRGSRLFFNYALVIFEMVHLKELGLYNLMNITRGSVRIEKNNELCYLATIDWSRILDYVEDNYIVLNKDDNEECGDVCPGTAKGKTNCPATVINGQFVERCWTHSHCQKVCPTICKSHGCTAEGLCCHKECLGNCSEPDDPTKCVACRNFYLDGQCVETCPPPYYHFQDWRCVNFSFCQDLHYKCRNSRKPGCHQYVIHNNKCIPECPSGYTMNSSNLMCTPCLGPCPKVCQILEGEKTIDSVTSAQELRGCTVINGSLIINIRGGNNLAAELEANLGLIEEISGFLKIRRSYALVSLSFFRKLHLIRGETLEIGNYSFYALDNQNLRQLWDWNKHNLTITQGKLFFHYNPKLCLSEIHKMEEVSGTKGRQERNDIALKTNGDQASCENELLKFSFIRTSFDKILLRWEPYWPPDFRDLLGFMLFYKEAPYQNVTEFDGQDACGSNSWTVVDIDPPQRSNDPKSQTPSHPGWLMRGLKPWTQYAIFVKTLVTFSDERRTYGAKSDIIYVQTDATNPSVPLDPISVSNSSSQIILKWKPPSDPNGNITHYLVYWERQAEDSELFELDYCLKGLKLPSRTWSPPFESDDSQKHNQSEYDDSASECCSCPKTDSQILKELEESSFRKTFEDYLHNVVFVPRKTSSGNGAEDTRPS
Chain of Insulin receptor (P15127 764-1383 limits assumed): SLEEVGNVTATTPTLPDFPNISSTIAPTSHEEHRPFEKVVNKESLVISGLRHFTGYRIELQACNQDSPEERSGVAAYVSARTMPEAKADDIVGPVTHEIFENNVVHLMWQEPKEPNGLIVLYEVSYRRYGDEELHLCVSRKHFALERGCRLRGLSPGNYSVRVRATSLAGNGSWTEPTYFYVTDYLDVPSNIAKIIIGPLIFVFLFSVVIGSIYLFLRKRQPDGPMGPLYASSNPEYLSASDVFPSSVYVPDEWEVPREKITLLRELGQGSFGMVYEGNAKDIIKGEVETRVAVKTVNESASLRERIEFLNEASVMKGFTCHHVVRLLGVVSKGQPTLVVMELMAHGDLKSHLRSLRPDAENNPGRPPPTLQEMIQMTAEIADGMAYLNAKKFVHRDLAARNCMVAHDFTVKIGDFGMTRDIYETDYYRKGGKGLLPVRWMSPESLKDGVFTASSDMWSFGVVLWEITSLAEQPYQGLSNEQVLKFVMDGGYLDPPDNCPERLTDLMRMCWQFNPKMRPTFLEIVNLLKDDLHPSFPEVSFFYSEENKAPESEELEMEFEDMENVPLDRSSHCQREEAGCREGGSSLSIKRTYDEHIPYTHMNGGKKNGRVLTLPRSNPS
For data set [4], the target named is T1, 5-hydroxytryptamine receptor 1A (Rattus norvegicus, UniProt P19327). Further: in other assays of this panel Not Active means under 50% inhibition at 10 µM.
T1 sequence (P19327 whole entry): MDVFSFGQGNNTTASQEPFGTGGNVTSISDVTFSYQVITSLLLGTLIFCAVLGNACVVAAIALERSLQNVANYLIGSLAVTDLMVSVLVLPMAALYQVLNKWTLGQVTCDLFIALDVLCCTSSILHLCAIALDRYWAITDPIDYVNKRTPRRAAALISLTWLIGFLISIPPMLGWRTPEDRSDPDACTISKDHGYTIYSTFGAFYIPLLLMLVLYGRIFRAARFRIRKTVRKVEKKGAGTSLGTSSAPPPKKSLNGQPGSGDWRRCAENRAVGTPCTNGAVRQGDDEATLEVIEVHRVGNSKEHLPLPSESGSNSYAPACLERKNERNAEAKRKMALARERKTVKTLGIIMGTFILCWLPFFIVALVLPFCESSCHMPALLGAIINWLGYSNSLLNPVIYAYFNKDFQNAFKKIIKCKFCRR
The class given is cell membranes, CHO-K1, Membrane. To be noted: for Ki: read-out: Ki.

The target of the next data set is T2, Cytochrome P450 1A2 (Homo sapiens, UniProt P05177). Further: in other assays of this panel Not Active means under 50% inhibition at 10 µM.
T2 sequence (P05177 whole entry): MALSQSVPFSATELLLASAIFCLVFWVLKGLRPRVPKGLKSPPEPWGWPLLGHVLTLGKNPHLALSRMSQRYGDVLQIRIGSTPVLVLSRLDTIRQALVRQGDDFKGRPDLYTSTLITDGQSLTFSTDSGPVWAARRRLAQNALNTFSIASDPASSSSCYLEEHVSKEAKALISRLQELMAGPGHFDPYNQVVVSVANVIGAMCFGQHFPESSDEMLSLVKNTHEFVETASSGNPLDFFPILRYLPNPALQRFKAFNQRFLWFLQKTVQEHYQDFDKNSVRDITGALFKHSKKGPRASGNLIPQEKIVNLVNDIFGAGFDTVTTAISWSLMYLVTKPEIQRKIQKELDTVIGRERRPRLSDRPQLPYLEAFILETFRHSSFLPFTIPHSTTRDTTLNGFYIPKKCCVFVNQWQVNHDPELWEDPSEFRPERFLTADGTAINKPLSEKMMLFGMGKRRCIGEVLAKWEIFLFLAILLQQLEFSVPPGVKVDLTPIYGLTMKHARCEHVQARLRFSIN
To be noted: bti-tn-5b1-4.

Chain of Sigma non-opioid intracellular receptor 1 (Q99720 whole entry): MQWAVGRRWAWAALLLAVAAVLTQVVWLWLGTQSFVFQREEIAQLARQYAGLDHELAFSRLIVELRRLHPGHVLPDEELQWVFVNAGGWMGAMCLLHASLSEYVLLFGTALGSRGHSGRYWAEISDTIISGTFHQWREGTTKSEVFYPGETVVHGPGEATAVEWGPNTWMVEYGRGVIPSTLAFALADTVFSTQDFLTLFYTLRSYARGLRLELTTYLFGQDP

Turning to `CN1C[C@H](C(=O)N[C@]2(C)O[C@@]3(O)[C@@H]4CCCN4C(=O)[C@H](Cc4ccccc4)N3C2=O)C[C@@H]2c3cccc4[nH]cc(c34)C[C@H]21` [DIHYDROERGOTAMINE], the IC50 – broadly, the point on the concentration scale where inhibition reaches its midpoint – in data set [1] (jurkat) is “Not Active”; in data set [2], “Not Active”; in data set [3], “Not Active”; on Insulin receptor it was “Not Active”; in data set [4] (read-out: IC50), 0.659 nM; on Cytochrome P450 1A2, “Not Active”. The Ki (commonly a dissociation constant, usually derived from enzyme kinetics or from competition with a known ligand) in data set [2] was “Not Active”; in data set [3], “Not Active”; in data set [4], 0.377 nM; on Cytochrome P450 1A2, “Not Active”.
`Cc1c(N(C)CS(=O)(=O)[O-])c(=O)n(-c2ccccc2)n1C.[Na+]` [DIPYRONE SODIUM]: the IC50 result (in data set [1] (jurkat); in data set [2]; in data set [3]; at Insulin receptor; in data set [4] (cho-k1); against Cytochrome P450 1A2) was “Not Active” in each case. The Ki result (in data set [2]; in data set [3]; at Cytochrome P450 1A2) was “Not Active” in each case.
On to `CC(CCc1ccc(O)cc1)NCCc1ccc(O)c(O)c1` (stereo unspecified) [DOBUTAMINE], for which the IC50 in data set [1] (read-out: IC50) is 2520 nM; in data set [2], “Not Active”; in data set [3], “Not Active”; on Insulin receptor, “Not Active”; in data set [4] (cho-k1), “Not Active”; against Cytochrome P450 1A2, “Not Active”. Also, the Ki was 1060 nM in data set [1] (read-out: Ki), “Not Active” in data set [2], “Not Active” in data set [3] and “Not Active” at Cytochrome P450 1A2.
Regarding `CCn1cc(C(=O)O)c(=O)c2cc(F)c(N3CCNCC3)nc21` [ENOXACIN], the IC50 result (in data set [1] (jurkat); in data set [2]; in data set [3]; against Insulin receptor; in data set [4] (cho-k1); on Cytochrome P450 1A2) was “Not Active” each time. In addition, the Ki result (in data set [2]; in data set [3]; on Cytochrome P450 1A2) was “Not Active” throughout.
For `CCC(=O)O[C@H]1[C@H](O[C@@H]2[C@@H](C)[C@H](O[C@H]3C[C@@](C)(OC)[C@@H](O)[C@H](C)O3)[C@@H](C)C(=O)O[C@H](CC)[C@@](C)(O)[C@H](O)[C@@H](C)C(=O)[C@H](C)C[C@@]2(C)O)O[C@H](C)C[C@@H]1N(C)C` [ERYTHROMYCIN PROPIONATE], the IC50 result (in data set [1] (jurkat); in data set [2]; in data set [3]; against Insulin receptor; in data set [4] (cho-k1); on Cytochrome P450 1A2) was “Not Active” throughout. The Ki result (in data set [2]; in data set [3]; on Cytochrome P450 1A2) was “Not Active” in each case.
For the molecule `C=C(CC)C(=O)c1ccc(OCC(=O)O)c(Cl)c1Cl` [ETHACRYNIC ACID], the IC50 result (in data set [1] (jurkat); in data set [2]; in data set [3]; against Insulin receptor; in data set [4] (cho-k1); against Cytochrome P450 1A2) was “Not Active” in each case. Also, the Ki entry (in data set [2]; in data set [3]; on Cytochrome P450 1A2) was “Not Active” in each case.
For `C#C[C@]1(O)CC[C@H]2[C@@H]3CCc4cc(O)ccc4[C@H]3CC[C@@]21C` [ETHINYL ESTRADIOL], the IC50 entry (in data set [1] (jurkat); in data set [2]; in data set [3]; at Insulin receptor; in data set [4] (cho-k1); at Cytochrome P450 1A2) was “Not Active” throughout. Besides, the Ki entry (in data set [2]; in data set [3]; on Cytochrome P450 1A2) was “Not Active” each time.
As to `OCCO` [ETHYLENE GLYCOL], the IC50 result (in data set [1] (jurkat); in data set [2]; in data set [3]; against Insulin receptor; in data set [4] (cho-k1); against Cytochrome P450 1A2) was “Not Active” throughout. The Ki result (in data set [2]; in data set [3]; at Cytochrome P450 1A2) was “Not Active” throughout.
With `CC(=O)OCC(CCn1cnc2cnc(N)nc21)COC(C)=O` [FAMCICLOVIR], the IC50 result (in data set [1] (jurkat); in data set [2]; in data set [3]; against Insulin receptor; in data set [4] (cho-k1); against Cytochrome P450 1A2) was “Not Active” throughout. Moreover, the Ki result (in data set [2]; in data set [3]; at Cytochrome P450 1A2) was “Not Active” throughout.
Take `O=C(O)Cc1ccc(-c2ccccc2)cc1` [FELBINAC]: the IC50 entry (in data set [1] (jurkat); in data set [2]; in data set [3]; against Insulin receptor; in data set [4] (cho-k1); against Cytochrome P450 1A2) was “Not Active” in each case. For the same molecule, the Ki result (in data set [2]; in data set [3]; at Cytochrome P450 1A2) was “Not Active” in each case.
On to `CC(C(=O)O)c1ccc(-c2ccccc2)c(F)c1` (stereo unspecified) [FLURBIPROFEN], for which the IC50 entry (in data set [1] (jurkat); in data set [2]; in data set [3]; against Insulin receptor; in data set [4] (cho-k1); on Cytochrome P450 1A2) was “Not Active” in each case. For the same molecule, the inhibition constant Ki entry (in data set [2]; in data set [3]; on Cytochrome P450 1A2) was “Not Active” each time.
Turning to `NC[C@@H]1O[C@H](O[C@H]2[C@@H](O)[C@H](O[C@@H]3[C@@H](O)[C@H](N)C[C@H](N)[C@H]3O[C@H]3O[C@H](CN)[C@@H](O)[C@H](O)[C@H]3N)O[C@@H]2CO)[C@H](N)[C@@H](O)[C@@H]1O` [FRAMYCETIN], the IC50 entry (in data set [1] (jurkat); in data set [2]; in data set [3]; against Insulin receptor; in data set [4] (cho-k1); against Cytochrome P450 1A2) was “Not Active” throughout. Moreover, the inhibitory constant (Ki) entry (in data set [2]; in data set [3]; on Cytochrome P450 1A2) was “Not Active” throughout.
For the molecule `C[C@H]([C@](O)(Cn1cncn1)c1ccc(F)cc1F)S(C)(=O)=O` [GENACONAZOLE], the IC50 entry (in data set [1] (jurkat); in data set [2]; in data set [3]; against Insulin receptor; in data set [4] (cho-k1); on Cytochrome P450 1A2) was “Not Active” each time. Moreover, the Ki result (in data set [2]; in data set [3]; at Cytochrome P450 1A2) was “Not Active” in each case.
Consider `Cc1c(F)c(N2CCNC(C)C2)cc2c1c(=O)c(C(=O)O)cn2C1CC1` (stereo unspecified) [GREPAFLOXACIN], for which the IC50 entry (in data set [1] (jurkat); in data set [2]; in data set [3]; at Insulin receptor; in data set [4] (cho-k1); against Cytochrome P450 1A2) was “Not Active” in each case. In addition, the Ki result (in data set [2]; in data set [3]; on Cytochrome P450 1A2) was “Not Active” throughout.
As for `N=C(N)N/N=C/c1c(Cl)cccc1Cl` [GUANABENZ], the half-inhibitory concentration (IC50) result in data set [1] (jurkat) was “Not Active”; in data set [2], “Not Active”; in data set [3] it was “Not Active”; against Insulin receptor, “Not Active”; in data set [4] (read-out: IC50) it was 2070 nM; against Cytochrome P450 1A2 it was “Not Active”. Further, the Ki result in data set [2] was “Not Active”; in data set [3], “Not Active”; in data set [4], 1180 nM; on Cytochrome P450 1A2, “Not Active”.
Regarding `C[C@]12CCC(=O)C=C1CC[C@@H]1[C@@H]2[C@@H](O)C[C@@]2(C)[C@H]1CC[C@]2(O)C(=O)CO` [HYDROCORTISONE], the IC50 result (in data set [1] (jurkat); in data set [2]; in data set [3]; at Insulin receptor; in data set [4] (cho-k1); at Cytochrome P450 1A2) was “Not Active” in each case. Also, the Ki result (in data set [2]; in data set [3]; at Cytochrome P450 1A2) was “Not Active” each time.
Turning to `CC[C@H](C)C(=O)O[C@H]1C[C@@H](C)C=C2C=C[C@H](C)[C@H](CC[C@@H]3C[C@@H](O)CC(=O)O3)[C@H]21` [LOVASTATIN], the IC50 result (in data set [1] (jurkat); in data set [2]; in data set [3]; on Insulin receptor; in data set [4] (cho-k1); on Cytochrome P450 1A2) was “Not Active” each time. Moreover, the Ki result (in data set [2]; in data set [3]; at Cytochrome P450 1A2) was “Not Active” in each case.
